The values below come from paper PMC12346557, “Design, Synthesis, and Anticancer Evaluation of New Small-Molecule EGFR Inhibitors Targeting NSCLC and Breast Cancer” (International Journal of Molecular Sciences, 2025).

Like-named read-outs stand apart in the source and are kept apart here.

Experiment [1] deals with MCF-7 cells. Nature of the experiment: MTT cytotoxicity assay, MCF-7 cells. The class given is cell-based. The note with it: Homo sapiens, triplicate; for inhibition at 100 µM: MCF7, 100 µM, 72 h; for IC50: MCF7, 72 h culture, 1-100 µM.
Experiment [2] deals with A549 cells. The experiment in a line: MTT cytotoxicity assay, A549 cells. The class given is cell-based, human. The note with it: triplicate; for IC50: Homo sapiens, A549, 72 h culture, 1-100 µM; for reduction of A549 cell viability: 100 µM, 72 h.
Experiment [3] concerns Jurkat cells. The experiment in a line: MTT cytotoxicity assay, Jurkat cells. The class given is cell-based, human. The note with it: Homo sapiens, Jurkat; MTT. The procedure: A549 and MCF-7 human cancer cell lines were cultured in Dulbecco’s Modified Eagle’s Medium (DMEM) (Wako Pure Chemical Industries, Osaka, Japan) supplemented with 10% fetal bovine serum (FBS) (Equitech-Bio, Kerrville, TX, USA). […] All media were supplemented with 89 μg/mL of streptomycin (Meiji Seika Pharma, Tokyo, Japan). […] Cancer cells and PBMCs were seeded into 24-well and 96-well microtiter tissue culture plates (Iwaki, Asahi Glass Co., Chiba, Japan) at densities of 4 × 10^4 cells/mL and 5 × 10^5 cells/mL, respectively, and incubated for 72 h prior to drug treatment. The optimal seeding density for cytotoxicity assays was determined through preliminary testing. […] The cellular reduction MTT (Dojindo Molecular Technologies, Kumamoto, Japan) was assessed following established protocols from the literature, with slight modifications.

The test system of experiment [4] is EGFR. The conditions noted are these: cited from earlier work; for IC50: Figure 3, read-out: EGFR inhibition: IC50; for EGFR inhibition: Figure 3, concentration not given, ref 36 (7), 11 (11).
Experiment [5] deals with MCF-7 cells. Details: method as in ref 31 (1), 32 (2), 33 (3), 35 (6), 37 (8), 38 (9), 39 (10), 11 (11). The note with it: Figure 3; ref 31 (1), 32 (2), 33 (3), 35 (6), 37 (8), 38 (9), 39 (10), 11 (11); cited from earlier work.
Experiment [6] deals with A549 cells. Details: method as in ref 33 (3), 34 (4, 5), 36 (7), 38 (9), 39 (10), 11 (11). The note with it: Figure 3; ref 33 (3), 34 (4, 5), 36 (7), 38 (9), 39 (10), 11 (11); cited from earlier work.
[7] abbreviates: ref 31 (1), 33 (3), 35 (6), 37 (8), 38 (9), 39 (10).

With `Cc1ccc(C2=NN(c3nc(-c4ccccc4)cs3)C(c3cnc(-c4ccc(Cl)cc4)nc3)C2)cc1` (stereo not drawn) [BP-1, 1-(4-Phenylthiazol-2-yl)-3-(4-methylphenyl)-5-(2-(4-chlorophenyl)pyrimidin-5-yl)-2-pyrazoline], the inhibition at 100 µM in experiment [1] was 27 to 53%. For the same compound, the IC50 in experiment [1] was 91.6 ± 10.2 µM; in experiment [2] it was above 100 µM; in experiment [3], above 100 µM.
In the case of `Cc1ccc(C2=NN(c3nc(-c4ccc([N+](=O)[O-])cc4)cs3)C(c3cnc(-c4ccc(Cl)cc4)nc3)C2)cc1` (stereo not drawn) [BP-2, 1-(4-(4-Nitrophenyl)thiazol-2-yl)-3-(4-methylphenyl)-5-(2-(4-chlorophenyl)pyrimidin-5-yl)-2-pyrazoline], the inhibition at 100 µM in experiment [1] was in the range of 27 to 53%.
In turn, `Cc1ccc(C2=NN(c3nc(-c4ccc(F)cc4)cs3)C(c3cnc(-c4ccc(Cl)cc4)nc3)C2)cc1` (stereo not drawn) [BP-3, 1-(4-(4-Fluorophenyl)thiazol-2-yl)-3-(4-methylphenyl)-5-(2-(4-chlorophenyl)pyrimidin-5-yl)-2-pyrazoline] showed an inhibition at 100 µM in experiment [1] of 27 to 53%.
Still for that read-out and setting: the figure for `Cc1ccc(C2=NN(c3nc(-c4ccc(Cl)cc4)cs3)C(c3cnc(-c4ccc(Cl)cc4)nc3)C2)cc1` (stereo not drawn) [BP-4, 1-(4-(4-Chlorophenyl)thiazol-2-yl)-3-(4-methylphenyl)-5-(2-(4-chlorophenyl)pyrimidin-5-yl)-2-pyrazoline] is 27 to 53%.
`Cc1ccc(C2=NN(c3nc(-c4ccc(Br)cc4)cs3)C(c3cnc(-c4ccc(Cl)cc4)nc3)C2)cc1` (stereo not drawn) [BP-5, 1-(4-(4-Bromophenyl)thiazol-2-yl)-3-(4-methylphenyl)-5-(2-(4-chlorophenyl)pyrimidin-5-yl)-2-pyrazoline] returned an inhibition at 100 µM in experiment [1] of 27 to 53%. In experiment [2], the “reduction of A549 cell viability” value stood at 21%.
On to `Cc1ccc(C2=NN(c3nc(-c4ccc(C#N)cc4)cs3)C(c3cnc(-c4ccc(Cl)cc4)nc3)C2)cc1` (stereo not drawn) [BP-6, 1-(4-(4-Cyanophenyl)thiazol-2-yl)-3-(4-methylphenyl)-5-(2-(4-chlorophenyl)pyrimidin-5-yl)-2-pyrazoline], for which the inhibition at 100 µM in experiment [1] fell in the range of 27 to 53%.
In experiment [1], `Cc1ccc(C2=NN(c3nc(-c4ccc(C(F)(F)F)cc4)cs3)C(c3cnc(-c4ccc(Cl)cc4)nc3)C2)cc1` (stereo not drawn) [BP-7, 1-(4-(4-Trifluoromethylphenyl)thiazol-2-yl)-3-(4-methylphenyl)-5-(2-(4-chlorophenyl)pyrimidin-5-yl)-2-pyrazoline] came in with an inhibition at 100 µM of 27 to 53%. Also, the “reduction of A549 cell viability” value in experiment [2] is listed as 33%.
Regarding `COc1ccc(C2=NN(c3nc(-c4ccccc4)cs3)C(c3cnc(-c4ccc(Cl)cc4)nc3)C2)cc1` (stereo not drawn) [BP-8, 1-(4-Phenylthiazol-2-yl)-3-(4-methoxyphenyl)-5-(2-(4-chlorophenyl)pyrimidin-5-yl)-2-pyrazoline], in experiment [1], the inhibition at 100 µM was 27 to 53%.
Still for that read-out and setting: the figure for `COc1ccc(C2=NN(c3nc(-c4ccc([N+](=O)[O-])cc4)cs3)C(c3cnc(-c4ccc(Cl)cc4)nc3)C2)cc1` (stereo not drawn) [BP-9, 1-(4-(4-Nitrophenyl)thiazol-2-yl)-3-(4-methoxyphenyl)-5-(2-(4-chlorophenyl)pyrimidin-5-yl)-2-pyrazoline] is 27 to 53%.
As for `COc1ccc(C2=NN(c3nc(-c4ccc(F)cc4)cs3)C(c3cnc(-c4ccc(Cl)cc4)nc3)C2)cc1` (stereo not drawn) [BP-10, 1-(4-(4-Fluorophenyl)thiazol-2-yl)-3-(4-methoxyphenyl)-5-(2-(4-chlorophenyl)pyrimidin-5-yl)-2-pyrazoline], the inhibition at 100 µM in experiment [1] is 27 to 53%. In addition, the IC50 in experiment [1] is 76 ± 9.91 µM; in experiment [2], above 100 µM; in experiment [3] it was above 100 µM.
Take `COc1ccc(C2=NN(c3nc(-c4ccc(Br)cc4)cs3)C(c3cnc(-c4ccc(Cl)cc4)nc3)C2)cc1` (stereo not drawn) [BP-12, 1-(4-(4-Bromophenyl)thiazol-2-yl)-3-(4-methoxyphenyl)-5-(2-(4-chlorophenyl)pyrimidin-5-yl)-2-pyrazoline]: the inhibition at 100 µM in experiment [1] was in the range of 27 to 53%.
The same measure, in the same setting: the same measure for `COc1ccc(C2=NN(c3nc(-c4ccc(C#N)cc4)cs3)C(c3cnc(-c4ccc(Cl)cc4)nc3)C2)cc1` (stereo not drawn) [BP-13, 1-(4-(4-Cyanophenyl)thiazol-2-yl)-3-(4-methoxyphenyl)-5-(2-(4-chlorophenyl)pyrimidin-5-yl)-2-pyrazoline]: 27 to 53%; for `COc1ccc(C2=NN(c3nc(-c4ccc(C(F)(F)F)cc4)cs3)C(c3cnc(-c4ccc(Cl)cc4)nc3)C2)cc1` (stereo not drawn) [BP-14, 1-(4-(4-Trifluoromethylphenyl)thiazol-2-yl)-3-(4-methoxyphenyl)-5-(2-(4-chlorophenyl)pyrimidin-5-yl)-2-pyrazoline]: 27 to 53%.
Regarding `Cc1ccc(C2=NN(c3nc(-c4ccc(Cl)cc4)cs3)C(c3ccc(F)cc3)C2)cc1C` (stereo not drawn) [Compound 1], the half-inhibitory concentration (IC50) in experiment [4] (setting [7]) was 0.06 µM; in experiment [5] it was 0.07 µM.
Regarding `COc1ccc2nc(Cl)c(C3CC(c4ccc(C)cc4)=NN3c3nc(-c4ccc(F)cc4)cs3)cc2c1` (stereo not drawn) [Compound 2], the 50% inhibitory concentration (IC50) in experiment [4] (ref 32 (2), 34 (4, 5)) is 0.0318 µM; in experiment [5], 0.227 µM.
As to `N#Cc1ccc(-c2csc(N3N=C(c4ccc(N5CCOCC5)cc4)CC3c3ccc(Cl)cc3)n2)cc1` (stereo not drawn) [Compound 3], the IC50 is 4.34 µM in experiment [4] (setting [7]), 10.8 µM in experiment [6] and 8.05 µM in experiment [5].
For `CCOC(=O)c1sc(N2N=C(c3ccc(Cl)cc3Cl)CC2c2ccc(OC)cc2)nc1C` (stereo not drawn) [Compound 4], the IC50 in experiment [4] (ref 32 (2), 34 (4, 5)) was 0.0407 µM; in experiment [6], 4.22 µM.
For the compound `COc1ccc(C2CC(c3ccc(Cl)cc3Cl)=NN2c2nc(C)c(C(=O)Nc3ccccc3)s2)cc1OC` (stereo not drawn) [Compound 5], the IC50 was 0.0325 µM in experiment [4] (ref 32 (2), 34 (4, 5)) and 2.92 µM in experiment [6].
As for `COc1ccc(C2CC(c3ccc(OC)c(OC)c3)=NN2c2nc(-c3ccccc3)cs2)cc1` (stereo not drawn) [Compound 6], the IC50 was 0.009 µM in experiment [4] (setting [7]) and 7.21 µM in experiment [5].
For `Clc1ccc(C2CC(c3ccc4ccccc4c3)=NN2c2nc(-c3ccc(Br)cc3)cs2)cc1` (stereo not drawn) [Compound 7], in experiment [4], the EGFR inhibition is 58%. Also, the concentration for half-maximal inhibition (IC50) in experiment [6] is 9.51 µM.
Take `CCc1nnc2c(Nc3ccc(C(=O)/C=C/c4ccc(OC)cc4)cc3)nc3ccccc3n12` [Compound 8]: the IC50 in experiment [4] (setting [7]) is 0.083 ± 0.04 µM; in experiment [5], 8.23 ± 0.25 µM.
With `Cn1c(=O)c2[nH]c(SCC(=O)Nc3ccc(C(=O)/C=C/c4ccc(Cl)cc4)cc3)nc2n(C)c1=O` [Compound 9], the 50% inhibitory concentration (IC50) in experiment [6] was 1.8 ± 0.7 µM; in experiment [5] it was 1.3 ± 0.9 µM.
Regarding `C=CCn1c(SCC(=O)Nc2ccc(C(=O)/C=C/c3ccc(Cl)cc3)cc2)nnc1-c1cc(-c2ccccc2)nc2ccccc12` [Compound 10], the IC50 in experiment [4] (setting [7]) is 1.3 ± 1.2 µM; in experiment [6], 3.6 ± 0.05 µM; in experiment [5], 3.3 ± 0.08 µM.
`COc1ccc(C(=O)/C=C/c2cnc(-c3ccc(Cl)cc3)nc2)cc1OC` [Compound 11]: the EGFR inhibition in experiment [4] is recorded as 46%. Moreover, the IC50 in experiment [6] was 20.5 ± 2.7 µM; in experiment [5], 6.7 ± 1.02 µM.
Compound `COc1ccc(C2=NN(C(N)=S)C(c3cnc(-c4ccc(Cl)cc4)nc3)C2)cc1` (stereo not drawn) [Compound B-7, 3-(4-methoxyphenyl)-5-(2-(4-chlorophenyl)pyrimidin-5-yl)-1-thiocarbamoyl-2-pyrazoline] had an inhibition at 100 µM in experiment [1] of 39%. Besides, the “reduction of A549 cell viability” value in experiment [2] was 35%.
